Data from PMC10518257 (Nature Cancer, 2023).
“And” between values parts separate entries of the source, which are not always exact repeats. Equal entries are not always repeated. Where two headings read alike, the source gives them in different places.

Tests used:
[1] = tested on: Ba/F3-RET^M918T; assay: Growth inhibition assay in Ba/F3 cells (CellTiter-Glo, 72 h); format: cell-based; settings: Mus musculus, BaF3, 72 h, read-out: GI50 value (Mean ± SD), Ba/F3-RET^M918T, CellTiter-Glo, 72 h
[2] = tested on: Ba/F3 cells expressing KIF5B–RET^V804M; assay: as above; format: cell-based; settings: replicate sets
[3] = tested on: LUAD-0002AS1 cells (KIF5B::RET); assay: Dose-response western blotting, EC50 for inhibition of protein phosphorylation; format: cell-based; settings: Homo sapiens, LUAD-0002AS1, 2 h, densitometry
[4] = tested on: TT cells (RET C634W); assay: as above; format: cell-based; settings: Homo sapiens
[5] = tested on: HBECp53-RET cells (CCDC6-RET fusion); assay: Growth inhibition (alamarBlue, 96 h); format: cell-based, human; settings: for raw viability signal (Source Data Fig. 3b-c): HBEC-RET, replicate sets
[6] = tested on: LC-2/ad cells; assay: Growth inhibition (alamarBlue, 96 h); format: cell-based, human; settings: for raw viability signal (Source Data Fig. 3b-c): LC-2/Ad, replicate sets
[7] = tested on: LUAD-0086AS3 cells; assay: Growth inhibition (alamarBlue, 96 h); format: cell-based, human; settings: for raw viability signal (Source Data Fig. 3b-c): LUAD-0086AS3 (n=1, 3 replicates)
[8] = tested on: MMNK1 cholangiocytes; assay: Growth inhibition (alamarBlue, 96 h); format: cell-based, human; settings: for raw viability signal (Source Data Fig. 3b-c): MMNK, replicates
[9] = tested on: Ba/F3 KIF5B–RET^WT allograft tumors; assay: Subcutaneous allograft efficacy study; format: in vivo, BALB/c nude mice; settings: Ba/F3-KIF5B::RET, Ext. Data Fig. 9b
[10] = Homo sapiens, 96 h, read-out: IC50 for Inhibition of Growth (95% CI)

## CO[C@]1(C(=O)N[C@@H](C)c2ccc(-n3cc(F)cn3)nc2)CC[C@H](c2nc(C)cc(Nc3cc(C)[nH]n3)n2)CC1 [Pralsetinib]
[1]
  GI50: 1.62 ± 0.77 nM
[2]; Ba/3-KIF5B-RET-V804M
  GI50: 7.93 nM and 8.94 nM
[2]; Mus musculus, BaF3, Ba/3-KIF5B-RET-V804M
  GI50: 8.92 nM
[3]; read-out: EC50 for Inhibition of Protein Phosphorylation (95% CI), AKT S473
  EC50: 0.4 nM
[3]; read-out: EC50 for Inhibition of Protein Phosphorylation (95% CI), ERK1/2 T202/Y204
  EC50: 3.5 nM
[3]; read-out: EC50 for Inhibition of Protein Phosphorylation (95% CI), MEK1/2 S217/S221
  EC50: 0.9 nM
[3]; read-out: EC50 for Inhibition of Protein Phosphorylation (95% CI), P70 RSK T421/S424
  EC50: 1.7 nM
[3]; read-out: EC50 for Inhibition of Protein Phosphorylation (95% CI), RET Y905
  EC50: 1.1 nM
[3]; read-out: EC50 for Inhibition of Protein Phosphorylation (95% CI), S6RP S235/S236
  EC50: 1.1 nM
[4]; read-out: EC50 for Inhibition of Protein Phosphorylation (95% CI), AKT S473, 2 h, densitometry
  EC50: 1.5 nM
[4]; read-out: EC50 for Inhibition of Protein Phosphorylation (95% CI), ERK1/2 T202/Y204, 2 h, densitometry
  EC50: 2 nM
[4]; read-out: EC50 for Inhibition of Protein Phosphorylation (95% CI), MEK1/2 S217/S221, 2 h, densitometry
  EC50: 4.3 nM
[4]; read-out: EC50 for Inhibition of Protein Phosphorylation (95% CI), P70 RSK T421/S424, 2 h, densitometry
  EC50: 0.4 nM
[4]; read-out: EC50 for Inhibition of Protein Phosphorylation (95% CI), RET Y905, 2 h, densitometry
  EC50: 1 nM
[4]; read-out: EC50 for Inhibition of Protein Phosphorylation (95% CI), S6RP S235/S236, 2 h, densitometry
  EC50: 0.7 nM
[5]; 0.01 nM
  raw viability signal (Source Data Fig. 3b-c): 15373.7 and 12510.4 and 10530.7 and 16787.4
[5]; 0.1 nM
  raw viability signal (Source Data Fig. 3b-c): 15070.3 and 13088.9 and 11587.4 and 17702.2
[5]; 1 nM
  raw viability signal (Source Data Fig. 3b-c): 15214.6 and 13110.8 and 10795 and 16054.2
[5]; 10 nM
  raw viability signal (Source Data Fig. 3b-c): 6804.19 and 10276.4 and 9347.81 and 15758.2
[5]; 100 nM
  raw viability signal (Source Data Fig. 3b-c): 3516.93 and 4294.46 and 3038.53 and 6985.58
[5]; 1000 nM
  raw viability signal (Source Data Fig. 3b-c): 2132.67 and 2668.84 and 1165.86 and 3483.36
[5]; 10000 nM
  raw viability signal (Source Data Fig. 3b-c): 830.793 and 1030.6 and 876.114 and 1589.72
[5]; Homo sapiens, 96 h, read-out: IC50 for Inhibition of Growth (95% CI), HBECp53-RET, alamarBlue, 96 h
  IC50: 35 nM
[6]; Homo sapiens, LC-2-ad, 96 h, read-out: IC50 for Inhibition of Growth (95% CI)
  IC50: 18 nM
[6]; 0.01 nM
  raw viability signal (Source Data Fig. 3b-c): 14336.4 and 23167.3
[6]; 0.1 nM
  raw viability signal (Source Data Fig. 3b-c): 14242.4 and 23367.8
[6]; 1 nM
  raw viability signal (Source Data Fig. 3b-c): 13261.9 and 22232.1
[6]; 10 nM
  raw viability signal (Source Data Fig. 3b-c): 6314.77 and 17508.9
[6]; 100 nM
  raw viability signal (Source Data Fig. 3b-c): 3979.18 and 8357.34
[6]; 1000 nM
  raw viability signal (Source Data Fig. 3b-c): 2225.01 and 2896.43
[6]; 10000 nM
  raw viability signal (Source Data Fig. 3b-c): 918.728 and 947.198
[7]; [10]
  IC50: 121 nM
[7]; 0.01 nM
  raw viability signal (Source Data Fig. 3b-c): 31309.7 and 31098.7 and 34263.2
[7]; 0.1 nM
  raw viability signal (Source Data Fig. 3b-c): 29924.8 and 30921.2 and 29063.2
[7]; 1 nM
  raw viability signal (Source Data Fig. 3b-c): 27745.6 and 30045.6 and 27962.9
[7]; 10 nM
  raw viability signal (Source Data Fig. 3b-c): 27211.8 and 27719.7 and 26448.1
[7]; 100 nM
  raw viability signal (Source Data Fig. 3b-c): 16795 and 17102.3 and 12766
[7]; 1000 nM
  raw viability signal (Source Data Fig. 3b-c): 14016.5 and 12908.6 and 9876.85
[7]; 10000 nM
  raw viability signal (Source Data Fig. 3b-c): 5069.85 and 4707.96 and 4562.26
[8]; [10]
  IC50: 1220 nM
[8]; 0.01 nM
  raw viability signal (Source Data Fig. 3b-c): 14061.5 and 14595.7
[8]; 0.1 nM
  raw viability signal (Source Data Fig. 3b-c): 14508.1 and 15314.3
[8]; 1 nM
  raw viability signal (Source Data Fig. 3b-c): 14527.4 and 15275.2
[8]; 10 nM
  raw viability signal (Source Data Fig. 3b-c): 14437.6 and 14593.5
[8]; 100 nM
  raw viability signal (Source Data Fig. 3b-c): 12743.6 and 12893.3
[8]; 1000 nM
  raw viability signal (Source Data Fig. 3b-c): 8417.95 and 8619.63
[8]; 10000 nM
  raw viability signal (Source Data Fig. 3b-c): 2073.73 and 2410.62
[9]; 3 mg/kg BID, Day 1
  Tumor Volume Mean: 221.52 mm3
[9]; 3 mg/kg BID, Day 4
  Tumor Volume Mean: 379.17 mm3
[9]; 3 mg/kg BID, Day 8
  Tumor Volume Mean: 482.68 mm3
[9]; 3 mg/kg BID, Day 11
  Tumor Volume Mean: 745.24 mm3
[9]; 3 mg/kg BID, Day 15
  Tumor Volume Mean: 1198.84 mm3
[9]; 10 mg/kg BID, Day 1
  Tumor Volume Mean: 212.85 mm3
[9]; 10 mg/kg BID, Day 4
  Tumor Volume Mean: 215.66 mm3
[9]; 10 mg/kg BID, Day 8
  Tumor Volume Mean: 297.15 mm3
[9]; 10 mg/kg BID, Day 11
  Tumor Volume Mean: 403.26 mm3
[9]; 10 mg/kg BID, Day 15
  Tumor Volume Mean: 433.99 mm3
[9]; 30 mg/kg BID, Day 1
  Tumor Volume Mean: 218.49 mm3
